Consider 32 molecules from EP0099121A2, “Pharmaceutical compositions” (Bristol-Myers Company, priority 1982, dated 1984).

The subject of the first test is Gastric Acid Output. Kind of test: Gastric antisecretory activity in the Gastric Fistula Rat (Table 2 title: Two-Hour Pylorus Ligated Rat). It counts as in vivo, Long Evans rats. As to conditions: Rattus norvegicus, ip; Route of Administration i.p.; numbers in parentheses are the 95% confidence limits; read-out: ED50. As to the method: Male Long Evans rats weighing about 240-260 grams at the time of cannula implantation are used. The design and implantation of the stainless steel cannula into the anterior wall of the fore-stomach are carried out essentially as described by Pare et al. [Laboratory Animal Science, 27, 244 (1977)]. The fistula components are designed and the operative procedure is carried out exactly as described in the above reference. Post operatively the animals are individually housed in solid bottom cages with sawdust and are allowed food and water ad libitum throughout the entire recovery period. Animals are not used for test purposes for at least 15 days after the operative procedure.
The animals are fasted but allowed water ad libitum for 20 hours before the testing procedure is to begin. Immediately prior to collection, the cannula is opened and the stomach washed gently with 30-40 mL of warm saline or distilled water to remove any residual contents. The catheter is then screwed into the cannula in place of the plugging screw and the rat is placed in a clear plastic rectangular cage measuring 40 cm long, 15 cm wide and 13 cm high. The bottom of the cage has a slit approximately 1.5 cm wide and 25 cm long running down the center to accommodate the catheter which hangs through it. In this way the rat is not restricted and can move freely about the cage during collection periods. The remainder of the assay is carried out as described by Ridley et al. [Research Comm. Chem. Path. Pharm., 17, 365 (1977)].
Gastric secretions collected during the first hour after washing the stomach are discarded as they may be contaminated. For oral evaluation, the catheter is then removed from the cannula and replaced with the plugging screw. Water (2 mL/kg) is administered orally via gastric intubation and the animal is returned to the cage for 45 minutes. After this time the plugging screw is removed and replaced with a catheter to which a small plastic vial has been attached to collect the gastric secretions. A two hour sample is collected (this represents the control secretion), the catheter removed and replaced with the plugging screw. The test drug is now administered orally in a volume of 2 mL/kg via gastric intubation. Forty-five minutes later the plugging screw is again removed, replaced with the catheter attached to a small plastic vial and another 2 hour sample is collected. The secretions in the second sample are compared to those of the control sample in order to determine the effects of the test drug.
When test compounds are to be evaluated parenterally, the animal is injected ip or sc with the test compound vehicle in a volume of 2 mL/kg immediately after discarding the initial 60 minute collection. A two hour sample is collected (control secretion) and the animals are injected either ip or sc with the test compound in a volume of 2 mL/kg. An additional two hour sample is collected and its secretions are compared to those of the control period to determing drug effects.
The samples are centrifuged in a graduated tube for volume determination. Titratable acidity is measured by titrating a one mL sample to pH 7.0 with 0.02N NaOH, using an Autoburet and an electrometric pH meter (Radiometer). Titratable acid output is calculated in microequivalents by multiplying the volume in milliliters by the acid concentration in milliequivalents per liter.
Results are expressed as percent inhibition relative to control readings. Dose response curves are constructed and ED values are calculated by regression analyses. At least three rats are used at each dosage level and a minimum of three dosage levels are utilized for determination of a dose response curve.
In the case of `C#CCNC1=NS(=O)(=O)N=C1NCCSCc1nc[nH]c1C` [Example 1, 3-{2-[(5-Methyl-1H-imidazol-4-yl)methylthio}ethylamino}-4-(2-propynyl)amino-1,2,5-thiadiazole 1,1-dioxide], the ED50 is 12.5 µmol/kg.
On to `Cc1[nH]cnc1CSCCNC1=NS(=O)(=O)N=C1NCCSCc1csc(N=C(N)N)n1` [Example 3, 3-{2-[(2-Guanidinothiazol-4-yl)methylthio]ethylanino}-4-{2-[(5-methyl-1H-imidazol-4-yl)methylthio]ethylamino}-1,2,5-thiadiazole 1,1-dioxide], for which the ED50 amounted to 0.46 µmol/kg.
`Cc1[nH]cnc1CSCCNC1=NS(=O)(=O)N=C1O` [Example 7, 3-Hydroxy-4-{2-[(5-methyl-1H-imidazol-4-yl)methylthio]-ethylamino}-1,2,5-thiadiazole 1,1-dioxide]: the ED50 was determined as 31.1 µmol/kg.
On to `C#CCNC1=NS(=O)(=O)N=C1NCCSCc1csc(N=C(N)N)n1` [Example 32, 3-{2-[(2-Guanidinothiazol-4-yl)methyithio]ethylamino}-4-(2-propynyl)amino-1,2,5-thiadiazole 1,1-dioxide], for which the ED50 stood at 0.08 µmol/kg.

Still in this test, the particulars now being: Rattus norvegicus, sc; Route of Administration s.c.; numbers in parentheses are the 95% confidence limits; read-out: ED50.
With `CNC1=NS(=O)(=O)N=C1NCCSCc1nc[nH]c1C` [Example 2], the ED50 was approximately 100 µmol/kg.
The same measure, in the same setting: the result for `C#CCNC1=NS(=O)(=O)N=C1NCCSCc1ccc(CN(C)C)o1` [Example 13, 3-{2-[(5-Dimethylaminomethyl-2-furyl)methvlthio]ethyl-amino}-4-(2-proynyl)amino-1,2,5-thiadiazole 1,1-dioxide] reads 0.46 µmol/kg.
`C#CCN(C)Cc1ccc(CSCCNC2=NS(=O)(=O)N=C2NC)o1` [Example 14, 3-Methylamino-4-{2-[(5-([N-methyl-N-(2-propynyl)amino]-methyl}-2-furyl)methylthio]ethylamino}-12,5-thiadiazole 1,1-dioxide]: the ED50 is approximately 25 µmol/kg.
Take `CN(C)Cc1ccc(CSCCNC2=NS(=O)(=O)N=C2O)o1` [Example 17, 3-{2-[(5-Dimethylaminomethyl-2-furyl)methylthio]ethylamino}-4-hydroxy^-1,2,5-thiadiazole 1,1-dioxide]: the ED50 came out at 33 µmol/kg.
On to `C=CCNC1=NS(=O)(=O)N=C1NCCSCc1ccc(CN(C)C)o1` [Example 19, 3-Allylamino-4-{2-[(5-dimethylaminomethyl-2-furyl)methyl-thio]ethylamino}-1,2,5-thiadiazole 1,1-dioxide], for which the ED50 turned out to be 0.34 µmol/kg.
With `CNC1=NS(=O)(=O)N=C1NCCCCc1ccc(CN(C)C)o1` [Example 21, 3-{4-(5-Dimethylaminomethyl-2-furyl)butylamino}-4-methvlamino-1,2,5-thiadiazole 1,1-dioxide], the ED50 stood at 0.3 µmol/kg.
Consider `CNC1=NS(=O)(=O)N=C1NCCSCc1csc(CN(C)C)n1` [Example 33, 3-{2-[(2-Dimethylaminomethyl-4-thiazolyl)methylthio]ethyl-amino}-4-methylamino-1,2,5-thiadiazole 1,1-dioxide], for which the ED50 was determined as 0.57 µmol/kg.
Take `N=C(N)Nc1nc(CSCCNC2=NS(=O)(=O)N=C2NCCO)cs1` [Example 36, 3-{2-[(2-Guanidinothiazol-4-yl)methylthio]ethylamino}-4-(2-hydroxyethylamino)-1,2,5-thiadiazole 1,1-dioxide]: the ED50 turned out to be 1.59 µmol/kg.
`CN(C)Cc1ccc(CSCCNC2=NS(=O)(=O)N=C2NN)o1` [Example 51]: the ED50 was 55 µmol/kg.
As for `CNC1=NS(=O)(=O)N=C1NCCSCc1ccccn1` [Example 52, 3-Methylamino-4-{2-[(2-pyridyl)methylthio]ethylamino}-1,2,5-thiadiazole 1,1-dioxide], the ED50 is approximately 350 µmol/kg.
With `CCNc1n[s+]([O-])nc1NCCSCc1ccc(CN(C)C)o1` (centres unmarked) [Example 84, 3-{2-[(5-Dimethylaminomethyl-2-furyl)methylthio]ethylartino}-4-ethylamino-1,2,5-thiadiazole 1-oxide], the ED50 was 0.15 µmol/kg.
On to `CCCNC1=NS(=O)(=O)N=C1NCCSCc1ccc(CN(C)C)o1` [Example 85, 3-{2-[(5-Dimethylaminomethyl-2-furyl)methylthio]ethylamino}-4-propylamino-1,2,5-thiadiazole 1,1-dioxide], for which the ED50 stood at 0.14 µmol/kg.
On to `CN(C)Cc1ccc(CSCCNC2=NS(=O)(=O)N=C2NCc2ccccc2)o1` [Example 89, 3-Benzylamino-4-{2-[(5-dimethylaminomethyl-2-furyl)-methylthio]ethylamino}-1,2,5-thiadiazole 1,1-dioxide], for which the ED50 amounted to 0.25 µmol/kg.
On to `CNC1=NS(=O)(=O)N=C1NCCSCc1cccc(CN(C)C)c1` [Example 90, 3-{2-[(3-{Dimethylaminomethyl}phenyl)methylthio]ethylamino}-4-methylamino-1,2,5-thiadiazole 1,1-dioxide], for which the ED50 was 0.86 µmol/kg.
As to `CN(C)Cc1cccc(CSCCNc2n[s+]([O-])nc2N)c1` (centres unmarked) [Example 91, 3-Arnino-4-{2-[(3-{dinethylaninomethyl}henyl)methvlthio}-ethvlamino}-1,2,5-thiadiazole 1-oxide], the ED50 amounted to 1.3 µmol/kg.
On the same count and under the same terms, the result for `CNc1n[s+]([O-])nc1NCCSCc1ccc(CN(C)C)s1` (centres unmarked) [Example 92, 3-{2-[(5-Dimethylaminomethyl-2-thienyl)methylthio]-ethylamino}-4-methylamino-1,2,5-thiadiazole 1-oxide] reads 0.24 µmol/kg; that for `CN(C)Cc1ccc(CCCCNC2=NS(=O)(=O)N=C2N)o1` [Example 93, 3-Amino-4-{4-(5-dimethylaminomethyl-2-furyl)butylamino}-1,2,5-thiaciazole 1,1-dioxide], 0.14 µmol/kg.
On the same count and under the same terms, the result for `CN(C)Cc1nc(CSCCNC2=NS(=O)(=O)N=C2N)cs1` [Example 94, 3-A-mino-4-{2-[(2-dinethylaminomethyl-4-thiazolyl)methylthio)-ethylamino}-1,2,5-thiadiazole 1,1-dioxide] reads 0.44 µmol/kg.

The same test, now with this note: Route of Administration s.c.; numbers in parentheses are the 95% confidence limits.
Turning to “3-{2-[(5-Dimethylaminomethyl-2-furyl)methy1thio]ethylamino}-4-dodecylamino-1,2,5-thiadiazole 1,1-dioxide [Example 106]”, the ED50 was approximately 80 µmol/kg.
Regarding “3-{2-[(5-Dimethylaminomethyl-2-furyl)methylthio]-ethylamino}-4-pieridino-1,2,5-thiadiazole 1,1-dioxide [Example 102]”, the ED50 is approximately 15 µmol/kg.
In the case of “3-{2-[(5-Dimethylaminomethyl-2-furyl)methylthio]ethyl- amino}-4-dinethylamino-1,2,5-thiadiazole 1,1-dioxide [Example 28]”, the ED50 is listed as 1.39 (0.39-4.91) μmoles/kg.
On the same count and under the same terms, then `CNCc1ccc(CSCCNC2=NS(=O)(=O)N=C2NC)o1` [20 A], with 1.15 (0.32-3.7) μmoles/kg; and `CNC1=NS(=O)(=O)N=C1NCCCOc1cccc(CN2CCCC2)c1` [144 a], with 0.095 (0.033-0.30) μmoles/kg.
Still for that read-out and setting: the result for `CNC1=NS(=O)(=O)N=C1NCCCOc1cccc(CN2CCC(C)CC2)c1` [144 b] reads 0.025 (0.0087-0.065) μmoles/kg.
For the molecule `CNC1=NS(=O)(=O)N=C1NCCCOc1cccc(CN2CCOCC2)c1` [144 d], the ED50 is 0.91 (0.36-3.2) μmoles/kg.
For the molecule `Nc1n[s+]([O-])nc1NCCCOc1cccc(CN2CCCC2)c1` (centres unmarked) [145 a], the ED50 was 0.056 (0.021-0.18) μmoles/kg.
With `CC1CCN(Cc2cccc(OCCCNc3n[s+]([O-])nc3N)c2)CC1` (centres unmarked) [145 b], the ED50 is approximately 0.06 µmol/kg.
In the case of `NC1=NS(=O)(=O)N=C1NCCCOc1cccc(CN2CCOCC2)c1` [146 d], the ED50 was 0.28 (0.066-1.21) μmoles/kg.
